Measured values from patent US10882844B2, “Compounds useful as immunomodulators” (Bristol-Myers Squibb Company, priority 2016, dated 2021).

Biological target: PD-1/PD-L1 (Homo sapiens (Human), UniProt Q9NZQ7)
Assay: PD-1/PD-L1 Homogenous Time-Resolved Fluorescence (HTRF) binding assay
Settings: PD-1-Ig / PD-L1-His HTRF; value given as number; read-out: Range or IC50
From the text: The ability of the compounds of formula (I) to bind to PD-L1 was investigated using a PD-1/PD-L1 Homogenous Time-Resolved Fluorescence (HTRF) binding assay.
Homogenous Time-Resolved Fluorescence (HTRF) binding assay.
The interaction of PD-1 and PD-L1 can be assessed using soluble, purified preparations of the extracellular domains of the two proteins. The PD-1 and PD-L1 protein extracellular domains were expressed as fusion proteins with detection tags, for PD-1, the tag was the Fc portion of Immunoglobulin (PD-1-Ig) and for PD-L1 it was the 6 histidine motif (PD-L1-His). All binding studies were performed in an HTRF assay buffer consisting of dPBS supplemented with 0.1% […] bovine serum albumin and 0.05% (v/v) Tween-20. For the h/PD-L1-His binding assay, inhibitors were pre-incubated with PD-L1-His (10 nM final) for 15 m in 4 μl of assay buffer, followed by addition of PD-1-Ig (20 nM final) in 1 μl of assay buffer and further incubation for 15 m. HTRF detection was achieved using europium crypate-labeled anti-Ig (1 nM final) and allophycocyanin (APC) labeled anti-His (20 nM final). Antibodies were diluted in HTRF detection buffer and 5 μl was dispensed on top of the binding reaction. The reaction mixture was allowed to equilibrate for 30 minutes and the resulting signal (665 nm/620 nm ratio) was obtained using an EnVision fluorometer. Additional binding assays were established between the human proteins PD-1-Ig/PD-L2-His (20 & 5 nM, respectively) and CD8O-His/PD-L1-Ig (100 & 10 nM, respectively).
Recombinant Proteins: Human PD-1 (25-167) with a C-terminal human Fc domain of immunoglobulin G (Ig) epitope tag [hPD-1 (25-167)-3S-IG] and human PD-L1 (18-239) with a C-terminal His epitope tag [hPD-L1(18-239)-TVMV-His] were expressed in HEK293T cells and purified sequentially by ProteinA affinity chromatography and size exclusion chromatography. Human PD-L2-His and CD80-His was obtained through commercial sources.
The table below lists the IC50 values for representative examples of this disclosure measured in the PD-1/PD-L1 Homogenous Time-Resolved Fluorescence (HTRF) binding assay. Ranges are as follows: A=0.18 nM-0.99 nM; B=1.0 nM-5.0 nM; C=5.01 nM-10.1 nM; D=10.2 nM-200 nM; E=201 nM→10 uM

Sequence of PD-1/PD-L1 (Q9NZQ7 other isoform, or with tags, fused parts or gaps): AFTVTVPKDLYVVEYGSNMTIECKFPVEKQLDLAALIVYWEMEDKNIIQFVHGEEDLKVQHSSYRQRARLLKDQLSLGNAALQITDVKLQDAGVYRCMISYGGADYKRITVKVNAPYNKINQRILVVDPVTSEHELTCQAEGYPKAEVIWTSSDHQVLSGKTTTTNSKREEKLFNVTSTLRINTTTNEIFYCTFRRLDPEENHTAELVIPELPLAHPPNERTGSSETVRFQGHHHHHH

| IC50 | Compound |
| --- | --- |
| 0.67 nM | Cc1c(COc2cc(OCc3cncc(C#N)c3)c(CN3CCCC[C@H]3C(=O)O)cc2Cl)cccc1-c1ccc2oc(C3CCN(C)C3)nc2c1 (stereo partly drawn) [Example 1008, (2S)-1-(5-chloro-2-((5-cyanopyridin-3-yl)methoxy)-4-((2-methyl-3-(2-(1-methylpyrrolidin-3-yl)benzo[d]oxazol-5-yl)benzyl)oxy)benzyl)piperidine-2-carboxylic Acid] |

Same assay, conditions: PD-1-Ig / PD-L1-His HTRF; value given as range class; read-out: Range or IC50

| Compound | IC50 |
| --- | --- |
| Cc1c(COc2cc(OCc3cncc(C#N)c3)c(CN3CCCC[C@H]3C(=O)O)cc2Cl)cccc1-c1ccc2oc(C3CCN(C)CC3)nc2c1 [Example 1001, (S)-1-(5-chloro-2-((5-cyanopyridin-3-yl)methoxy)-4-((2-methyl-3-(2-(1-methylpiperidin-4-yl)benzo[d]oxazol-5-yl)benzyl)oxy)benzyl)piperidine-2-carboxylic Acid] | 0.18 to 0.99 nM |
| Cc1c(COc2cc(OCc3cncc(C#N)c3)c(CN3CCCC[C@H]3C(=O)O)cc2Cl)cccc1-c1ccc2oc(C3CCCN(C)C3)nc2c1 (stereo partly drawn) [Example 1003, (2S)-1-(5-chloro-2-((5-cyanopyridin-3-yl)methoxy)-4-((2-methyl-3-(2-(1-methylpiperidin-3-yl)benzo[d]oxazol-5-yl)benzyl)oxy)benzyl)piperidine-2-carboxylic Acid] | 1 to 5 nM |
| Cc1c(COc2cc(OCc3cncc(C#N)c3)c(CN3CCCC[C@H]3C(=O)O)cc2Cl)cccc1-c1ccc2oc(C3(C)CCNCC3)nc2c1 [Example 1011, (S)-1-(5-chloro-2-((5-cyanopyridin-3-yl)methoxy)-4-((2-methyl-3-(2-(4-methylpiperidin-4-yl)benzo[d]oxazol-5-yl)benzyl)oxy)benzyl)piperidine-2-carboxylic Acid] | 1 to 5 nM |
| Cc1c(COc2cc(OCc3cncc(C#N)c3)c(CN3CCCC[C@H]3C(=O)O)cc2Cl)cccc1-c1ccc2ncc(C3=CC4CCC(C3)N4C(=O)OC(C)(C)C)nc2c1 (stereo partly shown) [Example 1028] | 201 to 10000 nM |
| Cc1c(COc2cc(OCc3cncc(C#N)c3)c(CN3CCCC[C@H]3C(=O)O)cc2Cl)cccc1-c1ccc2oc(C3CC4CCC(C3)N4C)nc2c1 (stereo partly drawn) [Example 1014, (2S)-1-(5-chloro-2-((5-cyanopyridin-3-yl)methoxy)-4-((2-methyl-3-(2-(8-methyl-8-azabicyclo[3.2.1]octan-3-yl)benzo[d]oxazol-5-yl)benzyl)oxy)benzyl)piperidine-2-carboxylic Acid] | 1 to 5 nM |
| Cc1c(COc2cc(OCc3cncc(C#N)c3)c(CN3CCCC[C@H]3C(=O)O)cc2Cl)cccc1-c1ccc2oc(C3CCN(CC(=O)O)CC3)nc2c1 [Example 1016, (S)-1-(4-((3-(2-(1-(carboxymethyl)piperidin-4-yl)benzo[d]oxazol-5-yl)-2-methylbenzyl)oxy)-5-chloro-2-((5-cyanopyridin-3-yl)methoxy)benzyl)piperidine-2-carboxylic Acid] | 0.18 to 0.99 nM |
| Cc1c(COc2cc(OCc3cncc(C#N)c3)c(CN3CCCC[C@H]3C(=O)O)cc2Cl)cccc1-c1ccc2oc(C3CCN(C(C)C)CC3)nc2c1 [Example 1013, (S)-1-(5-chloro-2-((5-cyanopyridin-3-yl)methoxy)-4-((3-(2-(1-isopropylpiperidin-4-yl)benzo[d]oxazol-5-yl)-2-methylbenzyl)oxy)benzyl)piperidine-2-carboxylic Acid] | 1 to 5 nM |
| Cc1c(COc2cc(OCc3cncc(C#N)c3)c(CN3CCCC[C@H]3C(=O)O)cc2Cl)cccc1-c1ccc2oc(C34CC(N)(C3)C4)nc2c1 [Example 1015, (S)-1-(4-((3-(2-(3-aminobicyclo[1.1.1]pentan-1-yl)benzo[d]oxazol-5-yl)-2-methylbenzyl)oxy)-5-chloro-2-((5-cyanopyridin-3-yl)methoxy)benzyl)piperidine-2-carboxylic Acid] | 5.01 to 10.1 nM |
| Cc1c(COc2cc(OCc3cncc(C#N)c3)c(CN3CCCC[C@H]3C(=O)O)cc2Cl)cccc1-c1ccc2nc(C3CCN(C)CC3)oc2c1 [Example 1002, (S)-1-(5-chloro-2-((5-cyanopyridin-3-yl)methoxy)-4-((2-methyl-3-(2-(1-methylpiperidin-4-yl)benzo[d]oxazol-6-yl)benzyl)oxy)benzyl)piperidine-2-carboxylic Acid] | 1 to 5 nM |
| CCN(CC)C1CCC(c2nc3cc(-c4cccc(COc5cc(OCc6cncc(C#N)c6)c(CN6CCCC[C@H]6C(=O)O)cc5Cl)c4C)ccc3o2)CC1 (stereo partly drawn) [Example 1012, (S)-1-(5-chloro-2-((5-cyanopyridin-3-yl)methoxy)-4-((3-(2-(4-(diethylamino)cyclohexyl)benzo[d]oxazol-5-yl)-2-methylbenzyl)oxy)benzyl)piperidine-2-carboxylic Acid] | 0.18 to 0.99 nM |

Second part, the compound after the results:

| IC50 | Compound |
| --- | --- |
| 201 to 10000 nM | COc1cc(OCc2cccc(-c3ccc4oc(C5CCN(c6ccccc6)CC5)nc4c3)c2C)c(Cl)cc1CN1CCCC[C@H]1C(=O)O [Example 1023, (S)-1-(5-chloro-2-methoxy-4-((2-methyl-3-(2-(1-phenylpiperidin-4-yl)benzo[d]oxazol-5-yl)benzyl)oxy)benzyl)piperidine-2-carboxylic Acid] |
| 5.01 to 10.1 nM | Cc1c(COc2cc(OCc3cncc(C#N)c3)c(C=O)cc2Cl)cccc1-c1ccc2oc(C3CCN(C)CC3)nc2c1 [Example 1019, 5-((4-chloro-2-formyl-5-((2-methyl-3-(2-(1-methylpiperidin-4-yl)benzo[d]oxazol-5-yl)benzyl)oxy)phenoxy)methyl)nicotinonitrile] |
| 1 to 5 nM | Cc1c(COc2cc(OCc3cncc(C#N)c3)c(CN[C@H](C(=O)O)C(C)C)cc2Cl)cccc1-c1ccc2oc(N3CCN(C)CC3)nc2c1 [Example 2013, (S)-2-((5-chloro-2-((5-cyanopyridin-3-yl)methoxy)-4-((2-methyl-3-(2-(4-methylpiperazin-1-yl)benzo[d]oxazol-5-yl)benzyl)oxy)benzyl)amino)-3-methylbutanoic Acid] |
| 1 to 5 nM | Cc1c(COc2cc(OCc3cncc(C#N)c3)c(CNC(CO)CO)cc2Cl)cccc1-c1ccc2oc(N3CCN(C)CC3)nc2c1 [Example 2008] |
| 1 to 5 nM | COC(=O)C1CCC(c2nc3cc(-c4cccc(COc5cc(OCc6cncc(C#N)c6)c(CN6CCCC[C@H]6C(=O)O)cc5Cl)c4C)ccc3o2)CC1 (stereo partly drawn) [Example 1024, (S)-1-(5-chloro-2-((5-cyanopyridin-3-yl)methoxy)-4-((3-(2-(4-(methoxycarbonyl)cyclohexyl)benzo[d]oxazol-5-yl)-2-methylbenzyl)oxy)benzyl)piperidine-2-carboxylic acid] |
| 0.18 to 0.99 nM | Cc1c(COc2cc(OCc3cncc(C#N)c3)c(CNC(C)(CO)CO)cc2Cl)cccc1-c1ccc2oc(N3CCN(C)CC3)nc2c1 [Example 2009] |
| 0.18 to 0.99 nM | Cc1c(COc2cc(OCc3cncc(C#N)c3)c(CN3CCCC[C@H]3C(=O)O)cc2Cl)cccc1-c1ccc2ncc(C3=CCNCC3)nc2c1 [Example 1030, (S)-1-(5-chloro-2-((5-cyanopyridin-3-yl)methoxy)-4-((2-methyl-3-(3-(1,2,3,6-tetrahydropyridin-4-yl)quinoxalin-6-yl)benzyl)oxy)benzyl)piperidine-2-carboxylic Acid] |
| 0.18 to 0.99 nM | Cc1c(COc2cc(OCc3cncc(C#N)c3)c(CN(C)[C@@](C)(CO)C(=O)O)cc2Cl)cccc1-c1ccc2oc(N3CCN(C)CC3)nc2c1 [Example 2017, (S)-2-((5-chloro-2-((5-cyanopyridin-3-yl)methoxy)-4-((2-methyl-3-(2-(4-methylpiperazin-1-yl)benzo[d]oxazol-5-yl)benzyl)oxy)benzyl)(methyl)amino)-3-hydroxy-2-methylpropanoic Acid] |
